Source: US4515951A, “Preparation of 5,6,7,7a-tetrahydro-4H-thieno[3,2-c]pyridin-2-one compounds” (Sanofi, priority 1980, dated 1985)
Where two headings read alike, the source gives them in different places.

Legend:
[1] = test system: platelet aggregation by ADP; assay: inhibiting action on platelet aggregation by ADP (ADP TEST), plasma of orally treated rats; assay type: in vivo, Wistar rats; conditions: Rattus norvegicus; for inhibition at 5 mg/kg / inhibition at 12.5 mg/kg / inhibition at 25 mg/kg / inhibition at 50 mg/kg / inhibition at 100 mg/kg: read-out: Percentage inhibition of platelet aggregation (ADP test); for minimal effective dose: oral, rats, stated for the aggregation tests (ADP and collagen), read-out: dose at which significant (or similar) platelet aggregation inhibiting activity manifests itself
Description: (§1) A sample of blood is taken from the jugular vein of Wistar rats, which have previously been treated with the compound to be tested. From this blood, which is citrate-treated and centrifuged, there is reconstituted a plasma containing 600,000±20,000 platelets per mm^3, which is employed in all the aggregation measurements.
(§2) 0.4 ml. of plasma is treated in a siliconised tube provided with a bar magnet which is also siliconised. The tube is introduced into an aggregometer connected to an apparatus with which variations in optical density can be recorded. When the light transmission has reached a stable value, 0.5 ml. of a solution containing […] of ADP (adenosine diphosphate)is introduced into the tube.
(§3) Platelet aggregation then causes an increase in light transmission, followed by a reduction in light transmission due to the subsequent disaggregation stage.
(§4) The maximum variation in optical density thus determined relative to that of a plasma free of platelets characterises the intensity of aggregation.
(§5) The measurements are carried out during the 2 hours which follow the taking of the blood sample, this sample being taken 3 hours after treatment with the derivative to be tested.
(§6) Groups of 20 rats were used. Each group received a single dose of the compound to be tested, administered orally, the same compound being administered at different doses ranging from 5 mg./kg. to 100 mg./kg.
(§7) The results obtained are given in the following Tables II and III, which show the percentage inhibition of platelet aggregation obtained relative to the control experiment, 3 hours after treatment with the compound to be tested.

in vivo = conditions: mouse, iv
Text: This study was concerned with the acute, chronic, sub-chronic and delayed toxicities.

experimental thrombosis = assay: anti-thrombosis activity, experimental thrombosis caused by extracorporal circulation (Umetsu and Sonoi); assay type: in vivo, rats; conditions: for Average weight of the thrombi: control (5% gum arabic) 30.41
Description: This activity was studied by the experimental thrombosis method caused by extracorporal circulation, described by Umetsu and Sonoi (Thrombos. Haemost., 39, […]).
The left jugular vein and the right external carotid are exposed in rats anaesthetised by an intraperitoneal injection of pentobarbital. A shunt is provided which consists of a central catheter and two lateral catheters. A natural white silk thread is introduced into the central part and the circulation is restarted for 20 minutes. After stopping the circulation by clamping, the thread is gently withdrawn and weighed immediately.
Treatment was carried out for 48 hours, 24 hours and 2 hours before the start of the blood circulation in shunt.
The test compounds were administered orally to different groups of animals in the form of a suspension in 10 ml. of 5% gum arabic/kg., the doses used being 12.5 mg./kg., 25 mg./kg., 50 mg./kg., 100 mg./kg. and 200 mg./kg.

[2] = test system: platelet aggregation by collagen; assay: inhibiting action on platelet aggregation by collagen (COLLAGEN TEST), plasma of orally treated rats; assay type: in vivo, Wistar rats; conditions: Rattus norvegicus, read-out: Percentage inhibition of platelet aggregation (collagen test)
Description: as §1, §2, §3, §4, §5
The ADP solution is replaced by a solution of collagen (extracted from cattle tendons).
as §6, §7

[3] = test system: platelet aggregation induced by ADP; assay: kinetic study of platelet aggregation induced by ADP (Born's nephelometric method, Bryston aggregometer), intraperitoneal; assay type: in vivo; conditions: rats
Description: A further experiment was carried out, relating to the kinetic study of the compounds of the present invention.
The blood sample is taken 10 minutes and 60 minutes after this administration and is centrifuged to obtain a plasma enriched in platelets.
The platelet aggregation in the plasma, induced by ADP is measured in a Bryston aggregometer, using Born's nephelometric method.

[4] = 12.5 mg/kg oral, 48, 24 and 2 hours before
[5] = 25 mg/kg oral, 48, 24 and 2 hours before
[6] = 50 mg/kg oral, 48, 24 and 2 hours before
[7] = 100 mg/kg oral, 48, 24 and 2 hours before
[8] = 5 mg/kg oral, single dose, 3 hours after treatment, relative to control
[9] = 12.5 mg/kg oral, single dose, 3 hours after treatment, relative to control
[10] = 25 mg/kg oral, single dose, 3 hours after treatment, relative to control
[11] = 50 mg/kg oral, single dose, 3 hours after treatment, relative to control
[12] = 100 mg/kg oral, single dose, 3 hours after treatment, relative to control

Row | SMILES | inhibition at 5 mg/kg ([1]; po, 3 h) | inhibition at 12.5 mg/kg ([1]; po, 3 h) | inhibition at 25 mg/kg ([1]; po, 3 h) | inhibition at 50 mg/kg ([1]; po, 3 h) | inhibition at 100 mg/kg ([1]; po, 3 h) | LD50 at 24 h (in vivo) | inhibition at 5 mg/kg ([2]; po, 3 h) | inhibition at 12.5 mg/kg ([2]; po, 3 h) | inhibition at 25 mg/kg ([2]; po, 3 h) | inhibition at 50 mg/kg ([2]; po, 3 h) | inhibition at 5 mg/kg [1, 8] | inhibition at 12.5 mg/kg [1, 9] | inhibition at 25 mg/kg [1, 10] | inhibition at 50 mg/kg [1, 11] | inhibition at 100 mg/kg [1, 12] | inhibition at 5 mg/kg [2, 8] | inhibition at 12.5 mg/kg [2, 9] | inhibition at 25 mg/kg [2, 10] | inhibition at 50 mg/kg [2, 11] | inhibition at 100 mg/kg [2, 12] | further results
1 | O=C1C=C2CN(Cc3ccc(Cl)cc3)CCC2S1 (stereo not drawn) [Derivative 3, 5-(p-Chlorobenzyl)-5,6,7,7a-tetrahydro-4H-thieno-[3,2-c]pyridin-2-one] | 48.1% | 82.4% | 83% | 83.5% | 83.6% | 125 mg/kg | 17.4% | 44.9% | 86.5% | 87.2% |  |  |  |  |  |  |  |  |  |  | Average weight of the thrombi (experimental thrombosis; [4]): 26.72 mg; Average weight of the thrombi (experimental thrombosis; [5]): 12.04 mg; Average weight of the thrombi (experimental thrombosis; [6]): 5.96 mg; Average weight of the thrombi (experimental thrombosis; [7]): 4.62 mg; inhibition at 100 mg/kg ([2]; po, 3 h): 88.1%
2 | Clc1ccccc1CN1CCc2sccc2C1 [Reference compound A, 5-(2-chlorobenzyl)-4,5,6,7-tetrahydrothieno[3,2-c]pyridine, reference compound] |  |  |  |  |  |  |  |  |  |  | 0% | 0% | 0% | 34.6% | 63.2% | 0% | 0% | 40.9% | 46.8% | 80.1% | minimal effective dose ([1]; 3 h): 100 mg/kg; Average weight of the thrombi (experimental thrombosis; [4]): 30.45 mg; Average weight of the thrombi (experimental thrombosis; [5]): 30.09 mg; Average weight of the thrombi (experimental thrombosis; [6]): 28.86 mg; Average weight of the thrombi (experimental thrombosis; [7]): 23.04 mg; Average weight of the thrombi (experimental thrombosis; 200 mg/kg oral, 48, 24 and 2 hours before): 23.13 mg; anti-thrombosis action (experimental thrombosis; even at high doses): no anti-thrombosis action whatsoever; percentage inhibition as a function of time (platelet aggregation, ADP) ([3]; 10 minutes after 100 mg/kg intraperitoneal in propylene glycol): 22%; percentage inhibition as a function of time (platelet aggregation, ADP) ([3]; 60 minutes after 100 mg/kg intraperitoneal in propylene glycol): 39%
3 | CCC(c1ccccc1Cl)N1CCC2SC(=O)C=C2C1 (stereo not drawn) [Derivative 6, 5-[1-(2-Chlorophenyl)-propyl]-5,6,7,7a-tetrahydro-4H-thieno[3,2-c]pyridin-2-one] |  |  |  |  |  | 121 mg/kg |  |  |  |  | 48.7% | 83% | 83.4% | 83.9% | 83.9% | 16.8% | 44.4% | 85.7% | 89% | 89.2% | 
4 | N#Cc1ccccc1CN1CCc2sccc2C1 [Reference compound B, 5-(2-cyanobenzyl)-4,5,6,7-tetrahydrothieno[3,2-c]pyridine, reference compound] |  |  |  |  |  | 45 mg/kg |  |  |  |  | 0% | 0% | 0% | 35.5% | 63.8% | 0% | 0% | 38.5% | 51.2% | 78.8% | minimal effective dose ([1]; 3 h): 100 mg/kg
5 | O=C1C=C2CN(Cc3ccccc3)CCC2S1 (stereo not drawn) [Derivative 2, 5-Benzyl-5,6,7,7a-tetrahydro-4H-thieno[3,2-c]-pyridin-2-one] | 47.8% | 82.6% | 82.9% | 83.7% | 83.7% | 116 mg/kg | 16.5% | 44.2% | 85.8% | 87% |  |  |  |  |  |  |  |  |  |  | inhibition at 100 mg/kg ([2]; po, 3 h): 87.8%
6 | O=C1C=C2CN(Cc3ccccc3[N+](=O)[O-])CCC2S1 (stereo not drawn) [Derivative 8, 5-(o-Nitrobenzyl)-5,6,7,7a-tetrahydro-4H-thieno[3,2-c]-pyridin-2-one] |  |  |  |  |  | 278 mg/kg |  |  |  |  | 48% | 82.8% | 83.1% | 83.3% | 83.4% | 17% | 44.6% | 86.2% | 88.2% | 88.7% | 
7 | N#Cc1ccccc1CN1CCC2SC(=O)C=C2C1 (stereo not drawn) [Derivative 7, 5-(o-Cyanobenzyl)-5,6,7,7a-tetrahydro-4H-thieno[3,2-c]-pyridin-2-one] |  |  |  |  |  | 254 mg/kg |  |  |  |  | 47.6% | 82.7% | 82.9% | 83.1% | 83.2% | 16.5% | 44.5% | 86.2% | 87.9% | 89.4% | 
8 | CC(c1ccccc1Cl)N1CCC2SC(=O)C=C2C1 (stereo not drawn) [Derivative 5, 5-[1-(2-Chlorophenyl)-ethyl]-5,6,7,7a-tetrahydro-4H-thieno[3,2-c]pyridin-2-one] |  |  |  |  |  | 286 mg/kg |  |  |  |  | 48.4% | 82% | 82.4% | 83.2% | 83.5% | 17% | 44.8% | 86.1% | 87.8% | 88% | 
9 | O=C1C=C2CN(Cc3ccccc3Br)CCC2S1 (stereo not drawn) [Derivative 9, 5-(o-Bromobenzyl)-5,6,7,7a-tetrahydro-4H-thieno[3,2-c]-pyridin-2-one] | 48.4% | 83.1% | 83.4% | 83.7% | 84% | 118 mg/kg | 17.2% | 44.9% | 86.4% | 87.6% |  |  |  |  |  |  |  |  |  |  | inhibition at 100 mg/kg ([2]; po, 3 h): 88.6%
10 | Cc1ccccc1CN1CCC2SC(=O)C=C2C1 (stereo not drawn) [Derivative 4, 5-(o-Methylbenzyl)-5,6,7,7a-tetrahydro-4H-thieno-[3,2-c]pyridin-2-one] | 48% | 81.9% | 82.1% | 82.8% | 82.9% | 110 mg/kg | 17.1% | 45.2% | 85.9% | 88.1% |  |  |  |  |  |  |  |  |  |  | inhibition at 100 mg/kg ([2]; po, 3 h): 88.2%
